Assay results: patent US20240294478A1, “ANTI-CANCER COMPOUNDS AND METHODS OF USE” (YALE UNIVERSITY, priority 2021, published 2024)

Key:
[1] = tested on: LN229 MGMT+ shMSH3 cells; experiment: Short-term viability assay, LN229 MGMT+ shMSH3; format: cell-based; details: Homo sapiens, LN-229, Table III, read-out: IC50 against LN229 cell lines, MGMT MMR−
Experimental: The activity of KL-50 in MGMT-LN229 cells engineered to lack expression of other key MMR proteins including MSH6, MLH1, PMS2, and MSH3 was also confirmed. Western blotting was performed in LN229 MGMT+/−cells with stable expression of shRNA targeting MSH6, MLH1, PMS2, or MSH3 to confirm depletion of the shRNA targets. In shMSH6 cells, there was reduced expression of MSH2, and in shMLH1 cells, there was loss of PMS2, due to destabilization in the setting of loss of their heterodimeric partners. GAPDH serves as loading control. […] Short-term viability assay curves for KL-50 in LN229 MGMT+/−, MMR+/shMSH6 cells. […] Short-term viability assay curves for KL-50 in LN229 MGMT+/−, MMR+/shMLH1 cells. […] Short-term viability assay curves for KL-50 in LN229 MGMT+/−, MMR+/shPMS2 cells. […] Short-term viability assay curves for KL-50 in LN229 MGMT+/−, MMR+/shMSH3 cells.
MMR Protein shRNA Knockdown. pGIPZ lentiviral shRNA vectors targeting MSH2, MSH6, MLH1, PMS2, and MSH3 were purchased from Horizon Discovery (Table IV). […]
Short-term Cell Viability Assay. […] Cells were imaged on a Cytation 3 imaging reader (BioTek) and quantified using CellProfiler software. For in vitro short-term growth delay experiments, IC50 values were determined from the nonlinear regression equation, [inhibitor] vs normalized response with variable slope.

[2] = tested on: FANCD2 ubiquitination in LN229 MGMT+/−, MMR+/− cells; experiment: Western blot analysis of FANCD2 ubiquitination; format: cell-based, human
From the text: FIGS. 8A-8K. (FIG. 8A) Change in percent cells with 1 micronuclei from baseline (DMSO control) after treatment as in FIGS. 5A and 5C. Columns, mean; error bars, SD; n>15 technical replicates; **** p<0.0001; ns, not significant. (FIG. 8B) Short-term viability assay curves for KL-50 in PD20 cells, deficient in FANCD2 (FANCD2−/−) or complemented with FANCD2 (+FANCD2). (FIG. 8C) Short-term viability assay curves for KL-50 in PEO4 (BRCA2+) and PEO1 (BRCA2−/−) cells pre-treated with 0.01% DMSO control or 10 μM O^6BG (+O^6BG) for 1 h prior to KL-50 addition. (FIG. 8D) Short-term viability assay curves for KL-50 in DLD1 BRCA2+/− and BRCA2−/−cells pre-treated with 0.01% DMSO control or 10 μM O^6BG (+O^6BG) for 1 h prior to KL-50 addition. For FIGS. 8B-8D, points, mean; error bars, SD; n=3 technical replicates. […] (FIG. 8E) Validation of micronuclei identification using olaparib as positive control. Change in percent cells with 1 micronuclei from baseline (DMSO control) after treatment with olaparib (10 μM) for 48 h in LN229 MGMT+/−, MMR+/−cells. Columns, mean; error bars, SD; n>15 technical replicates; **** p<0.0001. […] The % FANCD2 ubiquitination (% FANCD2 Ub) is quantified as the background-corrected integrated band intensity of the upper band divided by the sum of the background-corrected integrated band intensities of the upper and lower bands. […]

[3] = tested on: MGMT− LN229 cells; experiment: Clonogenic survival assay, LN229 MGMT- cells; format: cell-based, human
Experimental: In vitro clonogenic survival assays (CSAs) were performed using four isogenic LN229 glioblastoma cell lines.
Clonogenic Cell Survival Assay. Cells of each line were pretreated with the test drug in culture for 48-72 hours at the specified dilutions. The cells were then immediately seeded in six-well plates in triplicate at three-fold dilutions, ranging from 9000 to 37 cells per well. Depending on colony size, these plates were kept in the incubator for 10 to 14 days. After incubation, colonies were washed in phosphate-buffered saline (PBS) and stained with crystal violet. Colonies were counted by hand. Counts were normalized to plating efficiency of the corresponding treatment condition.

SMILES	IC50 [1] [µM]	FANCD2 ubiquitination [2]	clonogenic survival, antitumor activity in MGMT− cells ([3]; independent of MMR status)	clonogenic survival, activity in MGMT−, MMR+ cells [3]	clonogenic survival, activity in MMR− cells ([3]; isogenic cells lacking MMR)
NC(=O)c1ncn2c(=O)n(CCF)nnc12 [KL-50]	328 ± 26	observed specifically in MGMT-cells	robust antitumor activity	–	–
Cn1nnc2c(C(N)=O)ncn2c1=O [TMZ, 4-methyl-5-oxo-2,3,4,6,8-pentazabicyclo[4.3.0]nona-2,7,9-triene-9-carboxamide, reference compound]	649 ± 32	only in MGMT−/MMR+cells	–	robust tumor cell killing	abolished
